From patent US12448352B2, “Beta adrenergic agonist and methods of using the same” (Curasen Therapeutics, Inc., priority 2019, dated 2025)

Experiment: Dog pharmacokinetic study
Assay type: in vivo, male Beagle dogs
Method: The rat pharmacokinetics studies of exemplary compounds 03-3, 03-5, and 03-115 were conducted with male SD rats. These rats were typically about 6-8 weeks old, weighing 200 g to 300 g. Animals were fasted overnight and free access to food 4 hours after dosing. A required volume of vehicle was added to reach the target concentration of the test article and vehicle component to prepare for the dosing. The dosing vehicle was PEG400 or 30% PEG400 in saline for IV, or 0.5% methylcellulose in water for PO. For IV dosing, the animals were administered intravenously via tail vein. For PO dosing, the animals were administered via oral gavage. After dosing, blood sample was collected (˜0.2 mL per time point) through jugular vein or heart puncture. Blood of each sample was transferred into plastic micro centrifuge tubes containing EDTA-K2. Collection tubes with blood samples and anticoagulant were inverted several times for proper mixing of the tube contents and then placed on wet ice. The blood samples were centrifuged at 2000 g for 5 minutes at 4° C. to obtain plasma which was stored in a freezer at −75±15° C. prior to analysis. Samples were analyzed using LC-MS/MS. WinNonlin were used for pharmacokinetic calculations.
Dog pharmacokinetics studies of exemplary compounds 03-3, 03-5, and 03-115 were conducted substantially similarly to the rat pharmacokinetic studies, instead using male Beagle dogs. Animals for PO studies were food fasted overnight prior to dosing and were fed approximately 2 hours after dosing. Animals for IV studies had free access to food and water. Blood samples were collected through venipuncture of peripheral veins except the dosing vein.

In the case of Cc1ncccc1[C@@H](O)CNC(C)(C)C [Compound 03-115], the AUCInf (PO 0.5 mg/kg) is reported as 0.132 µg·h/mL, the Cmax (PO 0.5 mg/kg) is reported as 0.0723 µg/mL and the MRT (PO 0.5 mg/kg) is reported as 1.82 h. The Tmax (PO 0.5 mg/kg) was 0.5 h, the AUCInf (PO 1.5 mg/kg) was 0.537 µg·h/mL and the Cmax (PO 1.5 mg/kg) was 0.387 µg/mL. It also gave an MRT (PO 1.5 mg/kg) of 1.69 h and a Tmax (PO 1.5 mg/kg) of 0.33 h.
